Measured values published in patent US12448388B2, “PRMT5 inhibitors and uses thereof” (Gilead Sciences, Inc., priority 2023, dated 2025).

test system: HCT116 MTAP-deleted cell lines; assay: Cell viability assay (CellTiter-Glo, 7 days), HCT116 MTAP-deleted; format: cell-based; settings: Homo sapiens, HCT-116; cell viability assay, HCT116 MTAP-deleted; class symbols; read-out: CC50
Outline: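 Read-out was CellTiter-Glo luminescence after a 7-day incubation (37 °C, 5% CO2) of HCT116 cells, MTAP-deleted or WT, on dose-response compound plates. CC50 values come from each line; where marked *, selectivity is overstated because poor solubility impaired the WT CC50 measurement.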

SMILES	CC50 [nM]
Nc1nc2cc(F)c(C(=O)N3CC[C@H]4C[C@@H]3c3ccc(Cl)nc34)cc2n2cncc12 [Ff-595, (4-amino-7-fluoroimidazo[1,5-a]quinoxalin-8-yl)((5R,9S)-2-chloro-5,7,8,9-tetrahydro-6H-5,9-methanopyrido[3,2-c]azepin-6-yl)methanone]	100 to 1000
CN(Cc1ccc(Br)c(C(F)F)c1)C(=O)c1cc2c(cc1F)nc(N)c1cncn12 [Ff-596, 4-amino-N-(4-bromo-3-(difluoromethyl)benzyl)-7-fluoro-N-methylimidazo[1,5-a]quinoxaline-8-carboxamide]	100 to 1000
Nc1nc2cc(Cl)c(C(=O)N3CC[C@H]4C[C@@H]3c3ccc(OC(F)F)cc34)cc2n2cncc12 [Ff-598, (4-amino-7-chloroimidazo[1,5-a]quinoxalin-8-yl)((1R,5S)-7-(difluoromethoxy)-1,3,4,5-tetrahydro-2H-1,5-methanobenzo[c]azepin-2-yl)methanone]	< 100
Nc1nc2cc(Cl)c(C(=O)N3CC[C@H]4C[C@@H]3c3ccc(Cl)cc34)cc2n2cncc12 [Ff-599, (4-amino-7-chloroimidazo[1,5-a]quinoxalin-8-yl)((1R,5S)-7-chloro-1,3,4,5-tetrahydro-2H-1,5-methanobenzo[c]azepin-2-yl)methanone]	< 100
CN(C(=O)c1cc2c(cc1F)nc(N)c1cncn12)C1COc2cc3ccccc3cc21 (stereo not shown) [Ff-600, 4-amino-N-(2,3-dihydronaphtho[2,3-b]furan-3-yl)-7-fluoro-N-methylimidazo[1,5-a]quinoxaline-8-carboxamide]	< 100
Nc1nc2cnc(C(=O)N3CC[C@H]4C[C@@H]3c3ccc(Cl)nc34)cc2n2cncc12 [Ff-602, (4-aminoimidazo[1,5-a]pyrido[3,4-e]pyrazin-8-yl)((5R,9S)-2-chloro-5,7,8,9-tetrahydro-6H-5,9-methanopyrido[3,2-c]azepin-6-yl)methanone]	100 to 1000
Nc1nc2cc(F)c(C(=O)N3CC[C@H]4C[C@@H]3c3ccc(Cl)cc34)cc2n2cncc12 [Ff-603, (4-amino-7-fluoroimidazo[1,5-a]quinoxalin-8-yl)((1R,5S)-7-chloro-1,3,4,5-tetrahydro-2H-1,5-methanobenzo[c]azepin-2-yl)methanone]	100 to 1000
CCN(C(=O)c1cc2c(cn1)nc(N)c1cncn12)[C@@H]1COc2cc(C(F)(F)F)ccc21 [Ff-604, (S)-4-amino-N-ethyl-N-(6-(trifluoromethyl)-2,3-dihydrobenzofuran-3-yl)imidazo[1,5-a]pyrido[3,4-e]pyrazine-8-carboxamide]	< 100
CN(C(=O)c1cc2c(cc1F)nc(N)c1cncn12)C1COc2cc(Cl)c(Br)cc21 (stereo not shown) [Ff-608, 4-amino-N-(5-bromo-6-chloro-2,3-dihydrobenzofuran-3-yl)-7-fluoro-N-methylimidazo[1,5-a]quinoxaline-8-carboxamide]	< 100
CN(C(=O)c1cc2c(cc1F)nc(N)c1cncn12)C1COc2cc(Br)c(Cl)cc21 (stereo not shown) [Ff-609, 4-amino-N-(6-bromo-5-chloro-2,3-dihydrobenzofuran-3-yl)-7-fluoro-N-methylimidazo[1,5-a]quinoxaline-8-carboxamide]	< 100
CCN(C(=O)c1cc2c(cn1)nc(N)c1c(C)ncn12)[C@@H]1COc2cc(C(F)(F)F)ccc21 [Ff-610, (S)-4-amino-N-ethyl-3-methyl-N-(6-(trifluoromethyl)-2,3-dihydrobenzofuran-3-yl)imidazo[1,5-a]pyrido[3,4-e]pyrazine-8-carboxamide]	< 100
CCN(C(=O)c1cc2c(cn1)nc(N)c1cnc(C)n12)[C@@H]1COc2cc(C(F)(F)F)ccc21 [Ff-613, (S)-4-amino-N-ethyl-1-methyl-N-(6-(trifluoromethyl)-2,3-dihydrobenzofuran-3-yl)imidazo[1,5-a]pyrido[3,4-e]pyrazine-8-carboxamide]	< 100
CN(C(=O)c1cc2c(cc1C1CC1)nc(N)c1cncn12)[C@@H]1COc2cc(C(F)(F)F)ccc21 [Ff-614, (S)-4-amino-7-cyclopropyl-N-methyl-N-(6-(trifluoromethyl)-2,3-dihydrobenzofuran-3-yl)imidazo[1,5-a]quinoxaline-8-carboxamide]	< 100
Nc1nc2cc(F)c(C(=O)N3CCC[C@@H]4Oc5cc(C(F)(F)F)ccc5[C@@H]43)cc2n2cnc(F)c12 [Ff-621, (4-amino-3,7-difluoroimidazo[1,5-a]quinoxalin-8-yl)((4aS,9bS)-7-(trifluoromethyl)-3,4,4a,9b-tetrahydrobenzofuro[3,2-b]pyridin-1(2H)-yl)methanone]	100 to 1000
Nc1nc2cc(F)c(C(=O)N3CCC[C@@H]4Oc5cc(C(F)(F)F)ccc5[C@@H]43)cc2n2c(F)ncc12 [Ff-622, (4-amino-1,7-difluoroimidazo[1,5-a]quinoxalin-8-yl)((4aS,9bS)-7-(trifluoromethyl)-3,4,4a,9b-tetrahydrobenzofuro[3,2-b]pyridin-1(2H)-yl)methanone]	< 100
Cc1ncc2c(N)nc3cc(F)c(C(=O)N4CC[C@H]5C[C@@H]4c4ccc(C(F)(F)F)nc4O5)cc3n12 [Ff-627, (4-amino-7-fluoro-1-methylimidazo[1,5-a]quinoxalin-8-yl)((2S,6R)-9-(trifluoromethyl)-3,4-dihydro-2H-2,6-methanopyrido[2,3-b][1,5]oxazocin-5(6H)-yl)methanone]	< 100
Cc1ncc2c(N)nc3cc(F)c(C(=O)N4C[C@@H](C)O[C@@H]5Cc6cc(C(F)(F)F)ccc6[C@@H]54)cc3n12 [Ff-629, (4-amino-7-fluoro-1-methylimidazo[1,5-a]quinoxalin-8-yl)((2R,4aS,9aR)-2-methyl-7-(trifluoromethyl)-2,3,9,9a-tetrahydroindeno[2,1-b][1,4]oxazin-4(4aH)-yl)methanone]	< 100
C[C@@H]1CN(C(=O)c2ccc3nc(N)c4cncn4c3c2)[C@H]2c3ccc(C(F)(F)F)cc3C[C@H]2O1 [Ff-630, (4-aminoimidazo[1,5-a]quinoxalin-8-yl)((2R,4aS,9aR)-2-methyl-7-(trifluoromethyl)-2,3,9,9a-tetrahydroindeno[2,1-b][1,4]oxazin-4(4aH)-yl)methanone]	< 100
Cc1ncc2c(N)nc3ccc(C(=O)N4C[C@@H](C)O[C@@H]5Cc6cc(C(F)(F)F)ccc6[C@@H]54)cc3n12 [Ff-631, (4-amino-1-methylimidazo[1,5-a]quinoxalin-8-yl)((2R,4aS,9aR)-2-methyl-7-(trifluoromethyl)-2,3,9,9a-tetrahydroindeno[2,1-b][1,4]oxazin-4(4aH)-yl)methanone]	100 to 1000
Cc1ncn2c1c(N)nc1cnc(C(=O)N3CC[C@H]4C[C@@H]3c3cc(F)c(C(F)(F)F)cc3O4)cc12 [Ff-635, (4-amino-3-methylimidazo[1,5-a]pyrido[3,4-e]pyrazin-8-yl)((2S,6R)-8-fluoro-9-(trifluoromethyl)-3,4-dihydro-2H-2,6-methanobenzo[b][1,5]oxazocin-5(6H)-yl)methanone]	< 100
Nc1nc2cc(F)c(C(=O)N3CC[C@H]4C[C@@H]3c3cc(F)c(C(F)(F)F)cc3O4)cc2n2cncc12 [Ff-636, (4-amino-7-fluoroimidazo[1,5-a]quinoxalin-8-yl)((2S,6R)-8-fluoro-9-(trifluoromethyl)-3,4-dihydro-2H-2,6-methanobenzo[b][1,5]oxazocin-5(6H)-yl)methanone]	< 100
CN(C(=O)c1cc2c(cn1)nc(N)c1cncn12)[C@@H]1COc2cc(C34CC(C(F)(F)F)(C3)C4)ccc21 [Ff-642, (S)-4-amino-N-methyl-N-(6-(3-(trifluoromethyl)bicyclo[1.1.1]pentan-1-yl)-2,3-dihydrobenzofuran-3-yl)imidazo[1,5-a]pyrido[3,4-e]pyrazine-8-carboxamide]	100 to 1000
Nc1nc2ccc(C(=O)N3C[C@@H](F)C[C@@H]4Oc5cc(C(F)(F)F)ccc5[C@@H]43)cc2n2cncc12 [Ff-649, (4-aminoimidazo[1,5-a]quinoxalin-8-yl)((3S,4aS,9bS)-3-fluoro-7-(trifluoromethyl)-3,4,4a,9b-tetrahydrobenzofuro[3,2-b]pyridin-1(2H)-yl)methanone]	< 100
Cc1ncc2c(N)nc3cc(F)c(C(=O)N4CCC[C@@H]5Oc6c(ccc(C(F)(F)F)c6F)[C@@H]54)cc3n12 [Ff-651, (4-amino-7-fluoro-1-methylimidazo[1,5-a]quinoxalin-8-yl)((4aS,9bS)-6-fluoro-7-(trifluoromethyl)-3,4,4a,9b-tetrahydrobenzofuro[3,2-b]pyridin-1(2H)-yl)methanone]	< 100
CN(C(=O)c1cc2c(cc1F)nc(N)c1cncn12)[C@@H]1COc2cc(S(F)(F)(F)(F)F)ccc21 [Ff-652, (S)-4-amino-7-fluoro-N-methyl-N-(6-(pentafluoro-16-sulfaneyl)-2,3-dihydrobenzofuran-3-yl)imidazo[1,5-a]quinoxaline-8-carboxamide]	< 100
CN(C(=O)c1cc2c(cc1F)nc(N)c1cncn12)[C@@H]1COc2cc(C(F)F)c(Cl)cc21 [Ff-653, (S)-4-amino-N-(5-chloro-6-(difluoromethyl)-2,3-dihydrobenzofuran-3-yl)-7-fluoro-N-methylimidazo[1,5-a]quinoxaline-8-carboxamide]	< 100
C[C@H]1C[C@@H](N(C)C(=O)c2cc3c(cc2F)nc(N)c2cncn23)c2ccc(C(F)(F)F)cc21 [Ff-654, 4-amino-7-fluoro-N-methyl-N-((1R,3S)-3-methyl-5-(trifluoromethyl)-2,3-dihydro-1H-inden-1-yl)imidazo[1,5-a]quinoxaline-8-carboxamide]	< 100
Nc1nc2cc(F)c(C(=O)N3CCC[C@@H]4Oc5cc(-c6cnn(C(F)(F)F)c6)ccc5[C@@H]43)cc2n2cncc12 [Ff-655, (4-amino-7-fluoroimidazo[1,5-a]quinoxalin-8-yl)((4aS,9bS)-7-(1-(trifluoromethyl)-1H-pyrazol-4-yl)-3,4,4a,9b-tetrahydrobenzofuro[3,2-b]pyridin-1(2H)-yl)methanone]	< 100
